This note sets out measurements from patent US20250368649A1, “TETRAHYDROPYRIDOPYRIMIDINE PAN-KRAS INHIBITORS” (Mirati Therapeutics, Inc., priority 2022, published 2025).

As a reminder, the inhibition is the change of the read-out against control, counted positive when it falls. The term IC50 denotes the concentration at which inhibition is half-maximal. Low values mean greater potency in that assay, high ones weaker potency in that assay.

The target of assay [1] is KRas Q61H (Homo sapiens, UniProt P01116, Q61H). Put plainly: KRas binding assay (TR-FRET displacement), KRas Q61H. The following applies: single point, 10 nM compound.
KRas Q61H, sequence (P01116 1-169 isoform P01116-2 Q61H): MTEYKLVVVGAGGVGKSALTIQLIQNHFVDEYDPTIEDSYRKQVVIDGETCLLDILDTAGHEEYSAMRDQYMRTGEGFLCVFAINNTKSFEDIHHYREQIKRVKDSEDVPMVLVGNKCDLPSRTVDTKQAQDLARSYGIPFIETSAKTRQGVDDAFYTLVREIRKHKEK
The test system of assay [2] is MKN1 cells. The assay can be described thus: Inhibition of KRas-mediated phosphorylation of ERK (Cisbio HTRF pERK), MKN1 cells. It is filed as cell-based. Conditions: Homo sapiens, MKN-1, 3 hour compound incubation, Cisbio pERK HTRF. In short, it runs like this:
(§1)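 Seeding density of 6,000 cells per well was used, with cultures kept in RPMI/10% FBS from day 1.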
For orientation: In TR-FRET formats the signal depends on donor and acceptor labels being close together.

In assay [3] the test system is A549 cells. The assay can be described thus: Inhibition of KRas-mediated phosphorylation of ERK (Cisbio HTRF pERK), A549 cells. It is filed as cell-based. The following applies: Homo sapiens; for IC50: A549, 3 h, 3 hr compound incubation, Cisbio pERK HTRF; for inhibition at 0.1 µM: single point at 100 nM, 3 hrs compound incubation.
Assay [4] addresses KRas G12V (Homo sapiens, UniProt P01116, G12V). The assay can be described thus: biochemical. The following applies: Binding to KRas (IC50 nM) G12V, TR-FRET displacement, KRas G12V.
Assay [5] concerns the target KRas G12R (Homo sapiens, UniProt P01116, G12R). Put plainly: biochemical. The following applies: Binding to KRas (IC50 nM) G12R, TR-FRET displacement, KRas G12R.
Assay [6] concerns ASPC1 cells. Put plainly: Inhibition of KRas-mediated phosphorylation of ERK (Cisbio HTRF pERK), ASPC1 cells. It is filed as cell-based. The following applies: Homo sapiens, AsPC-1 cells; for IC50: ASPC1, 3 h, 3 hr compound incubation, Cisbio pERK HTRF.
For assay [7], the system named is H358 cells. Put plainly: Inhibition of KRas-mediated phosphorylation of ERK (Cisbio HTRF pERK), H358 cells. Conditions: Homo sapiens; for IC50: NCI-H358, 3 h, 3 hr compound incubation, Cisbio pERK HTRF; for inhibition at 0.1 µM: NCI-H358, single point at 100 nM, 3 hrs compound incubation. Type of assay: cell-based.
Assay [8] concerns the target KRas G12C (Homo sapiens, UniProt P01116, G12C). It is filed as binding. The following applies: single point, 10 nM compound, read-out: Binding to KRas (% inhibition at 10 nM) G12C.
Assay [9] has as its target KRas G13D (Homo sapiens, UniProt P01116, G13D). Type of assay: binding. The following applies: single point, 10 nM compound, read-out: Binding to KRas (% inhibition at 10 nM) G13D.
The subject of assay [10] is H460 cells. The assay can be described thus: Inhibition of KRas-mediated phosphorylation of ERK (Cisbio HTRF pERK), H460 cells. It is filed as cell-based. The following applies: Homo sapiens; for IC50: NCI-H460, 3 h, 3 hr compound incubation, Cisbio pERK HTRF; for inhibition at 0.1 µM: NCI-H460, single point at 100 nM, 3 hrs compound incubation.
Assay [11] deals with H727 cells. The assay can be described thus: Inhibition of KRas-mediated phosphorylation of ERK (Cisbio HTRF pERK), H727 cells. Type of assay: cell-based. The following applies: Homo sapiens; for IC50: NCI-H727, 3 h, 3 hr compound incubation, Cisbio pERK HTRF.
Assay [12] has as its target KRas G12D (Homo sapiens, UniProt P01116, G12D). Put plainly: biochemical. Conditions: Binding to KRas (IC50 nM) G12D, TR-FRET displacement, KRas G12D.
Assay [13] addresses KRas WT (Homo sapiens, UniProt P01116). Put plainly: KRas binding assay (TR-FRET displacement), KRas WT. Conditions: single point, 10 nM compound.
Assay [14] has as its system HCT116 cells. The assay can be described thus: Inhibition of KRas-mediated phosphorylation of ERK (Cisbio HTRF pERK), HCT116 cells. Type of assay: cell-based. Conditions: Homo sapiens; for IC50: HCT-116, 3 h, 3 hr compound incubation, Cisbio pERK HTRF; for inhibition at 0.1 µM: HCT-116, single point at 100 nM, 3 hrs compound incubation.
Assay [15] relates to PSN1 cells. The assay can be described thus: Inhibition of KRas-mediated phosphorylation of ERK (Cisbio HTRF pERK), PSN1 cells. The following applies: Homo sapiens, PSN1, 3 h, 3 hour compound incubation, Cisbio pERK HTRF. It is filed as cell-based. In a few lines:
as §1

Assay [16] has as its target KRas G12A (Homo sapiens, UniProt P01116, G12A). It is filed as binding. Conditions: single point, 10 nM compound, read-out: Binding to KRas (% inhibition at 10 nM) G12A.
For assay [17], the target named is KRas G12S (Homo sapiens, UniProt P01116, G12S). It is filed as binding. Conditions: single point, 10 nM compound, read-out: Binding to KRas (% inhibition at 10 nM) G12S.
KRas G12S, sequence (P01116 1-169 isoform P01116-2 G12S): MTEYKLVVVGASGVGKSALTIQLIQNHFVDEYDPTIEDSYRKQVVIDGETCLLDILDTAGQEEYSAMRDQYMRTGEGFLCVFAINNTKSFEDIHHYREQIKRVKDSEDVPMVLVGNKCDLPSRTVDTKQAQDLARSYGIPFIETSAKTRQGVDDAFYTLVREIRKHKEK

KRas WT, sequence (P01116 1-169 isoform P01116-2): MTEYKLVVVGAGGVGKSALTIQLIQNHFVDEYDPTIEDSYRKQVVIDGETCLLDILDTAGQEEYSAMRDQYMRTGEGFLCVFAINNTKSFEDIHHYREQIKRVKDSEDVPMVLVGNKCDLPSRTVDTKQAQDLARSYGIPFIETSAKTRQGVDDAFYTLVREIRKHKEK
KRas G12A, sequence (P01116 1-169 isoform P01116-2 G12A): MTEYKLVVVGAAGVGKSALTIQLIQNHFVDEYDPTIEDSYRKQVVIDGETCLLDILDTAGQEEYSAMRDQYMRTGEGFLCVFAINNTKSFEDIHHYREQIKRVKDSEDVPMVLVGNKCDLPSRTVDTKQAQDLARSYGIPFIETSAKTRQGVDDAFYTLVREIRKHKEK
KRas G12V, sequence (P01116 1-169 isoform P01116-2 G12V): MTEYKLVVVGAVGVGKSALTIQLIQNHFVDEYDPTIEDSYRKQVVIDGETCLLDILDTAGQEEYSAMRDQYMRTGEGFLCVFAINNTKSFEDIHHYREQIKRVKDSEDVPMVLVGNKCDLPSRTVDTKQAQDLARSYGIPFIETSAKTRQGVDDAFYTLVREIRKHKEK
KRas G12D, sequence (P01116 1-169 isoform P01116-2 G12D): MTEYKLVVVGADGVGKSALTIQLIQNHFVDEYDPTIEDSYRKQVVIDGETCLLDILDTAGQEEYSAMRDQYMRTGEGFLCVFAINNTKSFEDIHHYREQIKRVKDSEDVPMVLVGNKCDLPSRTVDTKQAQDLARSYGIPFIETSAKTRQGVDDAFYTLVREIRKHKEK
KRas G12R, sequence (P01116 1-169 isoform P01116-2 G12R): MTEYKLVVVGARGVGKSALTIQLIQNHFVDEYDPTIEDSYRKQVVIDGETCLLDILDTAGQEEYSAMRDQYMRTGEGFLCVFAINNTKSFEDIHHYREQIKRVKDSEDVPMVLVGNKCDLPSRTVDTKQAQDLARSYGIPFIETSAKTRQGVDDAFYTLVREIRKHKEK
KRas G12C, sequence (P01116 1-169 isoform P01116-2 G12C): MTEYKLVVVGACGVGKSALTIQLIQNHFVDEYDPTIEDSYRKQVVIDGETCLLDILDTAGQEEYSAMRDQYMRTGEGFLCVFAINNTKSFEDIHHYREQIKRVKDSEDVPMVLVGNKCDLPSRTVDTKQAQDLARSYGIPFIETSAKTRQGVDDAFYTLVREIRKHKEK
KRas G13D, sequence (P01116 1-169 isoform P01116-2 G13D): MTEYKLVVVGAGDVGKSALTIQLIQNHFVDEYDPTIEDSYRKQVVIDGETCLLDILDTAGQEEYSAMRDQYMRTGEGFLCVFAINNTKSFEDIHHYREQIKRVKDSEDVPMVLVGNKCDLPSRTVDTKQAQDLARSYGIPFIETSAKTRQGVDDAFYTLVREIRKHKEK

Turning to `CCc1c(F)ccc2cc(O)cc(N3CCc4c(nc(OC[C@@]56CCCN5C[C@H](F)C6)nc4N4CCCn5nnc(Br)c5C4)C3)c12` [Example 284, 4-(4-(3-bromo-7,8-dihydro-4H-[1,2,3]triazolo[1,5-a][1,4]diazepin-5(6H)-yl)-2-(((2R,7aS)-2-fluorohexahydro-1H-pyrrolizin-7a-yl)methoxy)-5,6-dihydropyrido[3,4-d]pyrimidin-7(8H)-yl)-5-ethyl-6-fluoronaphthalen-2-ol], the inhibition at 0.01 µM in assay [1] is 89%; in assay [8] it was 95%; in assay [9] it was 90%; in assay [13] it was 88%; in assay [16], 88%; in [17], 96%. Besides, the half-maximal inhibitory concentration (IC50) was 30.5 nM in assay [2]; 22 nM in [3]; under 2 nM in [4]; under 2 nM in assay [5]; 3 nM in assay [6]; 10 nM in [7]. Moreover, the IC50 is 64 nM in assay [10]; 21 nM in [11]; under 2 nM in assay [12]; 157 nM in [14]; over 10000 nM in assay [15]. Besides, the inhibition at 0.1 µM in [3] amounted to 66%; in assay [7], 89%; in assay [10] it was 53%; in [14], 27%.

Take `CCc1c(F)ccc2cc(O)cc(N3CCc4c(nc(OC[C@@]56CCCN5C[C@H](F)C6)nc4N4CCCn5nc(C(=O)N6C7CCCC6C7)cc5C4)C3)c12` [Example 286, 6-azabicyclo[3.1.1]heptan-6-yl(5-(7-(8-ethyl-7-fluoro-3-hydroxynaphthalen-1-yl)-2-(((2R,7aS)-2-fluorohexahydro-1H-pyrrolizin-7a-yl)methoxy)-5,6,7,8-tetrahydropyrido[3,4-d]pyrimidin-4-yl)-5,6,7,8-tetrahydro-4H-pyrazolo[1,5-a][1,4]diazepin-2-yl)methanone]: the inhibition at 0.01 µM is 95% in assay [1]; 98% in [8]; 94% in assay [9]; 94% in assay [13]; 94% in assay [16]; 97% in assay [17]. The IC50 in assay [2] is 11.9 nM; in assay [3], 29 nM; in assay [4], under 2 nM; in assay [5], under 2 nM; in assay [6], 4 nM; in assay [7], 6 nM. The IC50 is 49 nM in assay [10]; 8 nM in [11]; under 2 nM in [12]; 211 nM in [14]; 3270 nM in assay [15]. Also, the inhibition at 0.1 µM in [3] stood at 87%; in [6] (ASPC1, single point at 100 nM, 3 hrs compound incubation), 96%; in assay [7] it was 97%; in assay [10], 66%; in assay [11] (NCI-H727, single point at 100 nM, 3 hrs compound incubation) it was 80%; in assay [14] it was 46%.

For the compound `CCc1c(F)ccc2cc(O)cc(N3CCc4c(nc(OC[C@@]56CCCN5C[C@H](F)C6)nc4N4CCCn5nc(C(=O)N(C)C6CC6)c(C)c5C4)C3)c12` [Example 292, N-cyclopropyl-5-(7-(8-ethyl-7-fluoro-3-hydroxynaphthalen-1-yl)-2-(((2R,7aS)-2-fluorohexahydro-1H-pyrrolizin-7a-yl)methoxy)-5,6,7,8-tetrahydropyrido[3,4-d]pyrimidin-4-yl)-N,3-dimethyl-5,6,7,8-tetrahydro-4H-pyrazolo[1,5-a][1,4]diazepine-2-carboxamide], the inhibition at 0.01 µM in assay [1] turned out to be 100%; in assay [8] it was 100%; in assay [9] it was 98%; in assay [13] it was 99%; in assay [16] it was 98%; in assay [17], 99%. In addition, the IC50 in assay [2] is 2 nM; in assay [3], 8 nM; in assay [4] it was under 2 nM; in assay [5] it was under 2 nM; in assay [6], 2 nM; in [7], 1 nM. Moreover, the IC50 in assay [10] was 17 nM; in [11], 5 nM; in assay [12] it was under 2 nM; in [14] it was 40 nM; in assay [15] it was 2230 nM. In addition, the inhibition at 0.1 µM was 98% in assay [3], 100% in [7], 93% in assay [10] and 75% in assay [14].

In the case of `CCc1c(F)ccc2cc(O)cc(N3CCc4c(nc(OC[C@@]56CCCN5C[C@H](F)C6)nc4N4CCCn5nc(C(=O)NC6CC6)c(C)c5C4)C3)c12` [Example 293, N-cyclopropyl-5-(7-(8-ethyl-7-fluoro-3-hydroxynaphthalen-1-yl)-2-(((2R,7aS)-2-fluorohexahydro-1H-pyrrolizin-7a-yl)methoxy)-5,6,7,8-tetrahydropyrido[3,4-d]pyrimidin-4-yl)-3-methyl-5,6,7,8-tetrahydro-4H-pyrazolo[1,5-a][1,4]diazepine-2-carboxamide], the inhibition at 0.01 µM stood at 92% in [1]; 99% in assay [8]; 91% in [9]; 92% in assay [13]; 95% in assay [16]; 99% in [17]. Besides, the IC50 in [2] is 15.9 nM; in assay [3], 18 nM; in assay [4] it was under 2 nM; in [5], under 2 nM; in assay [6], 3 nM; in assay [7], 3 nM. For the same compound, the IC50 in assay [10] was 48 nM; in assay [11], 8 nM; in [12], under 2 nM; in [14], 224 nM; in assay [15], 6010 nM. For the same compound, the inhibition at 0.1 µM amounted to 86% in assay [3], 95% in [7], 66% in assay [10] and 40% in [14].

With `CCc1c(F)ccc2cc(O)cc(N3CCc4c(nc(OC[C@@]56CCCN5C[C@H](F)C6)nc4N4CCCn5nc(C(=O)N(C)C)c(C6CC6)c5C4)C3)c12` [Example 294, 3-cyclopropyl-5-(7-(8-ethyl-7-fluoro-3-hydroxynaphthalen-1-yl)-2-(((2R,7aS)-2-fluorohexahydro-1H-pyrrolizin-7a-yl)methoxy)-5,6,7,8-tetrahydropyrido[3,4-d]pyrimidin-4-yl)-N,N-dimethyl-5,6,7,8-tetrahydro-4H-pyrazolo[1,5-a][1,4]diazepine-2-carboxamide], the inhibition at 0.01 µM in [1] came to 98%; in assay [8], 100%; in [9], 98%; in [13], 98%; in [16], 98%; in assay [17], 100%. For the same compound, the IC50 in assay [2] was 4 nM; in assay [3], 7 nM; in assay [4] it was under 2 nM; in assay [5], under 2 nM; in assay [6], 4 nM; in [7], 2 nM. Besides, the IC50 was 15 nM in assay [10]; 10 nM in assay [11]; under 2 nM in assay [12]; 41 nM in assay [14]; 3800 nM in assay [15]. For the same compound, the inhibition at 0.1 µM in assay [3] came out at 82%; in assay [7], 100%; in assay [10], 90%; in assay [14], 72%.
